These results are taken from patent publication US5880111A, “Therapeutic derivations of diphosphonates” (priority 1995, dated 1999).

Holding throughout (assay): MIC by broth-dilution method
What all share (assay type): cell-based

Assay [1] deals with Staphylococcus aureus ATCC 25923. As for the experimental part:
(§1) The antibacterial action of the product was evaluated against the following bacterial strains:
Gram positive bacteria: Staphylococcus aureus ATCC 25923
(§2) The sensitivity of the foregoing bacterial strains to both the product of Example 1 and norfloxacin was investigated by the broth-dilution method, and the minimal inhibitory concentration (MIC) values were assessed. MIC was defined as the lowest concentration ([…]) at which no bacterial growth could be observed visually.
(§3) The antibiotics were dissolved in dimethylsulfoxide (DMSO) and the solution was diluted by nine consecutive 2-fold dilutions in Nutrient-broth (NB) culture medium. Aliquots (0.2 ml) from each of these diluted solutions were added to test tubes containing 1.6 ml NB culture medium. The antibiotics were investigated in the concentration range of 100-0.38 μg/ml.
(§4) After overnight culture in NB at 37° C., the bacterial cultures were diluted so that their optical densities (OD) at 620 nm were between 0.08-0.1.
(§5) Incubation of the test tubes took place in a thermostat at 37° C. The test tubes were inspected visually after 24 and 48 hours. The margin of error of in vitro sensitivity determination was ± one dilution step. MIC values were read after 48 hours of incubation. The MIC value was the lowest antibiotic concentration at which no bacterial growth was observed, i.e. the culture medium remained clear. […]

Assay [2] concerns Escherichia coli OKI 35034. The procedure: as §1
Escherichia coli OKI 35034
as §2, §3, §4, §5

Assay [3] relates to Pseudomonas aeruginosa ATCC 27853. The procedure:
as §1
Pseudomonas aeruginosa ATCC 27853
as §2, §3, §4, §5

Assay [4] deals with Salmonella typhi OKI 10084. The following applies: Salmonella enterica. As for the experimental part: as §1
Gram negative bacteria: Salmonella typhi OKI 10084
as §2, §3, §4, §5

For assay [5], the system named is Staphylococcus epidermidis OKI 110001. As for the experimental part:
as §1
Staphylococcus epidermidis OKI 110001
as §2, §3, §4, §5

Assay [6] has as its system Proteus vulgaris OKI 60002. The procedure: as §1
Proteus vulgaris OKI 60002
as §2, §3, §4, §5

Assay [7] deals with Streptococcus faecalis OKI 80171. The settings on record: Enterococcus faecalis, OKI80171, Nutrient-broth, 37° C., read after 48 hours, mean of three independent experiments. The procedure: as §1
Streptococcus faecalis OKI 80171
as §2, §3, §4, §5

The structures appear in SMILES notation. In brackets after ≈: the same amount, converted by molar mass. Read-outs that look alike come from different tables or passages of the source.

Consider `CCn1cc(C(=O)O)c(=O)c2cc(F)c(N3CCNCC3)cc21` [NORFLOXACIN, norfloxacin], for which the MIC was found to be 6.25 µg/mL (≈ 19.6 µM) in assay [1] (ATCC25923, Staphylococcus aureus ATCC 25923, Nutrient-broth, 37° C., read after 48 hours, mean of three independent experiments, read-out: MIC); 6.25 µg/mL (≈ 19.6 µM) in assay [2] (OKI35034, Escherichia coli OKI 35034, Nutrient-broth, 37° C., read after 48 hours, mean of three independent experiments, read-out: MIC); 25 µg/mL (≈ 78.3 µM) in assay [3] (ATCC27853, Pseudomonas aeruginosa ATCC 27853, Nutrient-broth, 37° C., read after 48 hours, mean of three independent experiments, read-out: MIC); 12.5 µg/mL (≈ 39.1 µM) in assay [4] (TYPHI, 48 h); 6.25 µg/mL (≈ 19.6 µM) in assay [5] (OKI110001, Staphylococcus epidermidis OKI 110001, Nutrient-broth, 37° C., read after 48 hours, only two experiments, read-out: MIC); 6.25 µg/mL (≈ 19.6 µM) in assay [6] (OKI60002, Proteus vulgaris OKI 60002, Nutrient-broth, 37° C., read after 48 hours, mean of three independent experiments, read-out: MIC). Moreover, the MIC in assay [7] was 12.5 µg/mL (≈ 39.1 µM).
For the molecule `CCOP(=O)(OCC)C(CN1CCN(c2cc3c(cc2F)c(=O)c(C(=O)O)cn3CC)CC1)P(=O)(OCC)OCC` [Example 1, 6-Fluoro-1-ethyl-7-{4-[2,2-bis(diethoxyphosphono)-1-ethyl]-l-piperazyl}-4-oxo-1,4-dihydroquinoline-3-carboxylic acid], the MIC in assay [1] (Staphylococcus aureus, ATCC25923, 48 h) worked out at 12.5 µg/mL (≈ 20.2 µM); in assay [2] (Escherichia coli, OKI35034, 48 h), 25 µg/mL (≈ 40.4 µM); in assay [3] (Pseudomonas aeruginosa, ATCC27853, 48 h), 50 µg/mL (≈ 80.7 µM); in assay [4] (Salmonella typhi OKI 10084, Nutrient-broth, 37° C., read after 48 hours, mean of three independent experiments, read-out: MIC), 25 µg/mL (≈ 40.4 µM); in assay [5] (Staphylococcus epidermidis, OKI110001, 48 h) it was 12.5 µg/mL (≈ 20.2 µM); in assay [6] (Proteus vulgaris, OKI60002, 48 h), 3.12 µg/mL (≈ 5.04 µM). In addition, the MIC in assay [7] was 12.5 µg/mL (≈ 20.2 µM).
